The values that follow come from patent EP0009702A1, “A phenylalkylaminoethylsalicylamide, its preparation and pharmaceutical compositions containing it” (SCHERING CORPORATION, priority 1978, dated 1980).

One series deals with a-adrenergic receptors. The series is described as follows: α-adrenergic blocking potency, animal tests. In kind it is in vivo. Particulars: relative to labetalol (assigned value 1.0). The source says: (§1) The a- and β-blocking activities discussed earlier in this specification can be determined by known methods, e.g. by those of Farmer et.al., Brit. J. Pharm., 45, 660 (1972); Robson, J. Pharm. Exp. Therap., 175, 157 (1970), and Levy, Arch. Int. Pharmacodyn. Ther., 204,. 143 (197-3).

Series [1] deals with β-adrenergic receptors. The series is described as follows: β-adrenergic blocking potency, animal tests. The class given is in vivo. Particulars: for β-blocking potency: relative to labetalol (assigned value 1.0), animal tests.
Text: as §1

Series [2] deals with β-adrenergic receptors. Conditions: as disclosed in British patent specifications 1,541,932 and 1,541,933; cited from earlier work.
Series [3] in a line: direct peripheral vasodilation activity. The class given is in vivo. Particulars: compared with labetalol.
The nature of series [4]: toxicity at therapeutic doses. In kind it is in vivo.
Series [5] in a line: antihypertensive activity, laboratory tests, oral dosing. The class given is in vivo. Conditions: result in words.

The structures appear in SMILES notation.

Take `C[C@H](CCc1ccccc1)NC[C@H](O)c1ccc(O)c(C(N)=O)c1` (racemic) [diastereoisomer B, reference compound]: the a-blocking potency entry in the series on a-adrenergic receptors is “half”. Also, the β-blocking potency entry in the series with β-adrenergic receptors [1] is on record as “not significantly different from that of labetalol”.

As for `CC(CCc1ccccc1)NCC(O)c1ccc(O)c(C(N)=O)c1` (racemic) [diastereoisomer A], the β-adrenergic blocking activity entry in the series with β-adrenergic receptors [2] is given as “strongly reduced”.

As for `C[C@H](CCc1ccccc1)NC[C@H](O)c1ccc(O)c(C(N)=O)c1` (single isomer, unassigned; isomer 5) [(R,R) optical isomer], the a-blocking potency entry in the series on a-adrenergic receptors is “about one third”. Also, the “ratio of the β-adrenergic blocking potency to the a-adrenergic blocking potency” value in the series with β-adrenergic receptors [1] (compared with labetalol) was “greatly and unexpectedly increased”. In addition, the β-blocking potency result in the series on β-adrenergic receptors [1] is “about twelve times”. Moreover, the “direct peripheral vasodilation activity” value in series [3] is listed as “greater direct peripheral vasodilation activity than labetalol”. For the same molecule, the toxicity result in series [4] is listed as “substantially non-toxic”. The antihypertensive activity entry in series [5] is “potent antihypertensive activity”.
